# Reference: ChEMBL document CHEMBL1201862, “PubChem BioAssay data set” (2004)
# Active and inactive are the calls of the source.
# What was measured:
# [1] = biological target: Chaperone protein dnaK (Escherichia coli, UniProt C3TRK2); assay: E. coli DnaK binders, calorimetric Kd – biophysical, isothermal titration calorimetry, beta-domain, full-length DnaK, orthogonal assay for DnaK modulator project, SAR follow-up (AID 1495)
# [2] = biological target: T1, Neuropeptide Y receptor type 2 (Homo sapiens, UniProt P49146); assay: Fluorescence-based counterscreen for agonists of NPY-Y1: cell-based high-throughput dose response assay for agonists of NPY-Y2.; type: functional
# T1 sequence (P49146 whole entry): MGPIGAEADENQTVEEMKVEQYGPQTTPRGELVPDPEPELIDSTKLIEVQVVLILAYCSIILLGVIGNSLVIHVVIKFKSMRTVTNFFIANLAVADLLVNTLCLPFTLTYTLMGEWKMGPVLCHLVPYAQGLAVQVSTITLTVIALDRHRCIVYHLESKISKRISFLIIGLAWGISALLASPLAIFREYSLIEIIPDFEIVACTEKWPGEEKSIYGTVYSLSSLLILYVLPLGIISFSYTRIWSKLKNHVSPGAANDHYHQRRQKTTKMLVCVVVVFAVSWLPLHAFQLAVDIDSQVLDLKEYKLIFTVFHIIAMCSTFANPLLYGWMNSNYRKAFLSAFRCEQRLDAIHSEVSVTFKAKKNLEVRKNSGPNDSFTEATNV
# [3] = tested on: HEK293; assay: Fluorescence-based counterscreen for potentiators or agonists of NPY-Y1: cell-based high-throughput dose response assay for inhibitors of cyclic nucleotide gated ion channel (CNGC) activity. In this assay, the parental HEK293 cell line transfected with a cyclic-nucleotide gated ion channel (CNGC)-based cAMP sensor is used to measure inhibition of isoproterenol-induced CNGC …; type: functional; details: Homo sapiens
# [4] = biological target: T2, Neuropeptide Y receptor type 1 (Homo sapiens, UniProt P25929); assay: Fluorescence-based dose response cell-based high-throughput screening assay for agonists of NPY-Y1. [Related pubchem assays: 1697 (Screening assay (NPY-Y1 agonists).), 1359 (Screening assay (NPY-Y2 potentiators or agonists).), 1304 (Screening assay (NPY-Y1 potentiators or agonists).), 1704 (Screening assay (CNGC inhibitors).), 1791 (Summary AID.)]; type: functional
# T2 sequence (P25929 whole entry): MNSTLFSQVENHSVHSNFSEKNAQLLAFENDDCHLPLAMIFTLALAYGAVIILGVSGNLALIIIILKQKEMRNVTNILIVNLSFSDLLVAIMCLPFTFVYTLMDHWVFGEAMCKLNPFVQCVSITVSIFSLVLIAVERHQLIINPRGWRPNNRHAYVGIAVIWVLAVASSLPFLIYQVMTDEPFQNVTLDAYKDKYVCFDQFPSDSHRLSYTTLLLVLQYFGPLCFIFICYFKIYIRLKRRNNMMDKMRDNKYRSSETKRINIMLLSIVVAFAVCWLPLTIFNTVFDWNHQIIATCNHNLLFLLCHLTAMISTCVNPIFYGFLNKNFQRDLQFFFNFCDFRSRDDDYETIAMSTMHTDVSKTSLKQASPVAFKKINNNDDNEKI
# [5] = biological target: Photoreceptor-specific nuclear receptor (Homo sapiens, UniProt Q9Y5X4); type: functional;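 note: potency for compounds that break the NR2E3 corepressor complex and count as activators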
# [6] = biological target: T3, Voltage-gated N-type calcium channel alpha-1B subunit/Amyloid beta A4 precursor protein-binding family A member 1 (Homo sapiens, UniProt Q00975+Q02410); type: protein assay
# [7] = biological target: T3, Voltage-gated N-type calcium channel alpha-1B subunit/Amyloid beta A4 precursor protein-binding family A member 1; type: protein assay; remark: listed apart in the source
# [8] = biological target: Protein-tyrosine kinase 2-beta (Homo sapiens, UniProt Q14289);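 note: potency of inhibitors of PYK2 kinase phosphorylation of poly-GT substrate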
# [9] = biological target: Peroxisome proliferator-activated receptor gamma/Nuclear receptor corepressor 2 (Homo sapiens, UniProt P37231+Q9Y618); type: functional
# [10] = biological target: Genome polyprotein (Hepatitis C virus, UniProt Q2Q167); assay: disruption of hepatitis C core self-association – biochemical, TR-FRET, dose response (AID 2159); set-up: species or system Hepacivirus hominis;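 note: blocks dimerization of HCV core protein measured by TR-FRET between tagged core106 pairs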
# Chain of Genome polyprotein (Q2Q167 whole entry): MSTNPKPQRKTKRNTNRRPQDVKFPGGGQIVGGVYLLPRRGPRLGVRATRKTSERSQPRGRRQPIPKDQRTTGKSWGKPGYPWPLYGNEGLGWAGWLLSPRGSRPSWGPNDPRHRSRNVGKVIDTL
# T3 sequence (Q00975 whole entry): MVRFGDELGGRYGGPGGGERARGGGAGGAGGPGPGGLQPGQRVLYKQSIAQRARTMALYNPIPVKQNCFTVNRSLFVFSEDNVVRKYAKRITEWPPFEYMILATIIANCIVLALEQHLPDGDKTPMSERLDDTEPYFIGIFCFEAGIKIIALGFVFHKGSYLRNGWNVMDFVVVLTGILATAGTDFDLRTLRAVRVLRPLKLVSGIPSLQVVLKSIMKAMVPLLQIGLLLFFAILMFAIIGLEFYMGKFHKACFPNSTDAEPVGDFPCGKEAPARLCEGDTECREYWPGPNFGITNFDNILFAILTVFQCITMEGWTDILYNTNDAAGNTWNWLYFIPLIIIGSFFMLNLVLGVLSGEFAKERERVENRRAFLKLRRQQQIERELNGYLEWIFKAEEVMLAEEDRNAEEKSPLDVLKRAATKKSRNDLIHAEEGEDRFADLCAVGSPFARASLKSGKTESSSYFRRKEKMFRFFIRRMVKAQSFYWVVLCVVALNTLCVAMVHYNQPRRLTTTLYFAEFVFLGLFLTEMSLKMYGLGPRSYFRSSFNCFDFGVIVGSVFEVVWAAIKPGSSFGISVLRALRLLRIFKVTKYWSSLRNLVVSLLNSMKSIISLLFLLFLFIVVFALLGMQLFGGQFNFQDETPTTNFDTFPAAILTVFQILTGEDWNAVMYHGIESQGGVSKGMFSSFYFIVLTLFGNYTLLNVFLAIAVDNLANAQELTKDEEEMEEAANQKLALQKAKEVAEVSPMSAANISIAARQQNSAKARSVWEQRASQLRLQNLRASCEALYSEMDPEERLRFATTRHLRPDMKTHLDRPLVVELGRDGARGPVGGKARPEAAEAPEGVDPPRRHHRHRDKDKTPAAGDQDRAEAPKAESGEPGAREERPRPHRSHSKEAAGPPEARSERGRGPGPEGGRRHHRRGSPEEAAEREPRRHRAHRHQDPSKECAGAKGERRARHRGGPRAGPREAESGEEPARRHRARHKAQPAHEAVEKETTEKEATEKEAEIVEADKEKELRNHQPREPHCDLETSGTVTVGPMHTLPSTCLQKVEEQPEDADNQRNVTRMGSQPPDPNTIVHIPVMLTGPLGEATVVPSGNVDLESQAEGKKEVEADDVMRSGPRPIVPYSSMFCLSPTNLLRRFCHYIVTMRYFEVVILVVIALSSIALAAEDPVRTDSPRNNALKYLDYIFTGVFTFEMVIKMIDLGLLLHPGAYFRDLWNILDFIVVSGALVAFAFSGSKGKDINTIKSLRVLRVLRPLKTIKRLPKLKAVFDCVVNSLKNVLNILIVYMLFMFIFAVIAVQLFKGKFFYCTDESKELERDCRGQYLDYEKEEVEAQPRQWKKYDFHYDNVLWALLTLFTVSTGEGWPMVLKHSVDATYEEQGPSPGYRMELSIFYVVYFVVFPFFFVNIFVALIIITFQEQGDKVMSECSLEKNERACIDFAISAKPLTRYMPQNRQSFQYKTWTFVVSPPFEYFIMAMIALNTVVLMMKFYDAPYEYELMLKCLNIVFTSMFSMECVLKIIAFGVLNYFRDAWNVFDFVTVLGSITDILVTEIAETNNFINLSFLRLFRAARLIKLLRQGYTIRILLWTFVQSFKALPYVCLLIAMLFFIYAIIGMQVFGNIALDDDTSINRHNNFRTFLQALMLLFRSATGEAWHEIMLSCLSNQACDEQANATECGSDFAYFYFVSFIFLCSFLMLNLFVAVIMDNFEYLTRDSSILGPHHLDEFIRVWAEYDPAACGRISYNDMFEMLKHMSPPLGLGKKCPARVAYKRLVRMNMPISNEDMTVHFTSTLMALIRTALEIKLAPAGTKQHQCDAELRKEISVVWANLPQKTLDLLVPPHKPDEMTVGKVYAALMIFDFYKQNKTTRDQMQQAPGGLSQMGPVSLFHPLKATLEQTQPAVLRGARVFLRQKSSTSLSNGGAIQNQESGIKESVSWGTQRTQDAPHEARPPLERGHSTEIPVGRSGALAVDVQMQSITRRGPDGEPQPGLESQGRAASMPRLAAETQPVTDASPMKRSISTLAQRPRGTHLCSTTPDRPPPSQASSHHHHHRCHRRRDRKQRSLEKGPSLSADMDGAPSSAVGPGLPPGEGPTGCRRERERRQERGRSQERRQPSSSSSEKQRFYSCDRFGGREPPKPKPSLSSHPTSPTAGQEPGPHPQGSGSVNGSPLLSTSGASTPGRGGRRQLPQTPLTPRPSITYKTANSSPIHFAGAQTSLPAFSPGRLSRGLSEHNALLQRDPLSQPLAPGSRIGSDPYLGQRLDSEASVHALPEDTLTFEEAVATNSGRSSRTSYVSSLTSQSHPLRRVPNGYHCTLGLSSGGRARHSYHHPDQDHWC
# T3 sequence (Q02410 whole entry): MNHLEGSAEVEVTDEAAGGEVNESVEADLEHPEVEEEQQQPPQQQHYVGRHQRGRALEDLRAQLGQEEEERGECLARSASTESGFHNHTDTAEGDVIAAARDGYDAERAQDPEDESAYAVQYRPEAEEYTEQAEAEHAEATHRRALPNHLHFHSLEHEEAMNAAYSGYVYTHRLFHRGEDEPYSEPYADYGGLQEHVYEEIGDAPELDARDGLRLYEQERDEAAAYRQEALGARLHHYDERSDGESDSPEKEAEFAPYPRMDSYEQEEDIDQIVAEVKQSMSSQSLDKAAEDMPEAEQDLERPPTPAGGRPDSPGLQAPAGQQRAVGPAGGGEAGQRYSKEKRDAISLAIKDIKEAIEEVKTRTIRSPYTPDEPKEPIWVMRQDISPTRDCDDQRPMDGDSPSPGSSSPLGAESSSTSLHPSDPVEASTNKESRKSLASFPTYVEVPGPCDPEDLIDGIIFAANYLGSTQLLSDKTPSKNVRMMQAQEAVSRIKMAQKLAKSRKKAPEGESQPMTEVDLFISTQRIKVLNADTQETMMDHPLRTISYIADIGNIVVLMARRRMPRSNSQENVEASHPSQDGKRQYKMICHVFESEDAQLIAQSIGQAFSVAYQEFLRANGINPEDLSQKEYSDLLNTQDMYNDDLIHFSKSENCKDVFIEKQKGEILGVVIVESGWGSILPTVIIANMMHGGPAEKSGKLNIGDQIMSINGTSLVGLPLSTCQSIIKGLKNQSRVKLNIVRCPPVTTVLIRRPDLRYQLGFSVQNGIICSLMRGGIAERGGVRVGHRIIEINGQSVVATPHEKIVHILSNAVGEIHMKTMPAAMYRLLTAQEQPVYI
# Chain of Photoreceptor-specific nuclear receptor (Q9Y5X4 whole entry): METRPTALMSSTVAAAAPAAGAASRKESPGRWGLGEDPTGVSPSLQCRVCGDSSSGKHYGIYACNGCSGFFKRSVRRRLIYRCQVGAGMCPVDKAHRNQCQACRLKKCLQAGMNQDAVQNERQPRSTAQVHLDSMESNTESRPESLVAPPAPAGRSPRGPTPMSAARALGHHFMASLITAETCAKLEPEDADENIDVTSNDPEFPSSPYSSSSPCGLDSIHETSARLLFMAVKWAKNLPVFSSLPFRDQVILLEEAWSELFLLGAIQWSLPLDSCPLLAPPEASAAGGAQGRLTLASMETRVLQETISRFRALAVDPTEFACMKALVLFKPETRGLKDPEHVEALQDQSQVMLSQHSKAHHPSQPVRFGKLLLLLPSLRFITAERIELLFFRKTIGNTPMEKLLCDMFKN
# Chain of Protein-tyrosine kinase 2-beta (Q14289 whole entry): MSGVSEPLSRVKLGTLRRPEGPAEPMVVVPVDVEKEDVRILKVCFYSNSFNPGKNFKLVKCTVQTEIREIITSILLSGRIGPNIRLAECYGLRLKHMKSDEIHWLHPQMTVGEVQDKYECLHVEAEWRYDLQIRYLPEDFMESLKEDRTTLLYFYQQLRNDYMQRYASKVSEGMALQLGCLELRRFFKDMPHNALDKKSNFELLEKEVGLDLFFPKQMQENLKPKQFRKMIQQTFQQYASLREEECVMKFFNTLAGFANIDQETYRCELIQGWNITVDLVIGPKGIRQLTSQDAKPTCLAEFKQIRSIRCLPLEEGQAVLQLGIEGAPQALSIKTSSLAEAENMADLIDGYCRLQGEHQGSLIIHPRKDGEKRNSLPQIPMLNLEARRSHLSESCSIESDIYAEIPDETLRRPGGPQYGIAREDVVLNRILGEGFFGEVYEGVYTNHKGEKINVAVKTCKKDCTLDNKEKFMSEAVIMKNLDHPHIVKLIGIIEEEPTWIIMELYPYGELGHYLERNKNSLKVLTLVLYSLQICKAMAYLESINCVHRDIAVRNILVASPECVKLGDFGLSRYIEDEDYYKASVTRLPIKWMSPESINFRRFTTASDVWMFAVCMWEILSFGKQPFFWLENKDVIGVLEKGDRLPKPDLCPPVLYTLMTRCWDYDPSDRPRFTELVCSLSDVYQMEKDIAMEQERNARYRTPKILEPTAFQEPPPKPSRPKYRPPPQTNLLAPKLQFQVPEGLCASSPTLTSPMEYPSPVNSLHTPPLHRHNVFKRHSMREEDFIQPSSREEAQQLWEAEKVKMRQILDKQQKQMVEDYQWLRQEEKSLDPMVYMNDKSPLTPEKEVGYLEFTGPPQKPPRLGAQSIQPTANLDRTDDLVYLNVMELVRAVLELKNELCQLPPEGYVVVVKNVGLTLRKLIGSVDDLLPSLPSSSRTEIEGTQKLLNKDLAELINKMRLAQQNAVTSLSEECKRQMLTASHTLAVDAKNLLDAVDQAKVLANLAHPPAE
smiles,measurement,setting,value
O=C(NCc1cccc2ccsc12)c1cccs1,Kd,[1],0.2 µM (active)
O=C(Nc1ccncc1)c1ccc2c(c1)C(=O)N(C1CCCCC1)C2=O,EC50,[2],> 35.4 µM (not active)
same,IC50,[3],> 35.4 µM (not active)
same,EC50,[4],> 35.4 µM (not active)
Cc1c(N2C(=O)c3ccc4c5c(ccc(c35)C2=O)CC4)c(=O)n(-c2ccccc2)n1C,IC50,[5],> 39.8 µM (not active)
same,IC50,[6],15.7 µM (active)
same,IC50,[7],5.83 µM (active)
same,IC50,[8],2.27 µM (active)
same,IC50,[9],> 39.8 µM (not active)
same,IC50,[10],> 49.8 µM (not active)
